Assay [1] concerns SW1573. Nature of the assay: Drug combination synergy assay (inhibition matrix). The assay is classed as cell-based. The following applies: Homo sapiens, read-out: inhibition of cell growth. The method, then:
The synergy finder codes were used to determine the synergy between drugs for 48 possible combinations. The codes were run using the R-platform and synergy was calculated and represented as the synergy landscape.
Drug Combination Synergy Assay: For combination index (CI) calculation, SW1573 and H23 incured cell lines were seeded in 96-well plate with 5000 cells per well. Three biological replicates (three 96-well plates for each drug combination) were used. […] The drugs were used in linear dilution series with dilution factor of 2. […] Further, R package called SynergyFinder (He et al., 2018) was used to find the nature of drug-drug interaction (i.e. if they work in synergy or antagonistically or non-interactively). For this purpose, the drug response matrix is supplied to the mentioned package, which then uses several models namely Highest Single Agent (Berenbaum, 1989), Loewe additivity (Loewe, 1953), Bliss independence (Bliss, 1939) and Zero Interaction Potency (Yadav et al., 2015) to quantify the degree of drug synergy. The dose response matrix was used to calculate individual CI values for IC30, IC50 and IC70 drug treatments. The output values were used to plot isobolograms using the following formula. CI=IC50 (A) pair IC50 (A)+IC50 (B) pair IC50 (B)

In assay [2] the test system is SW1463. The experiment in a line: Cell proliferation, colorectal G12C homozygous cell line. The conditions noted are these: Homo sapiens, SW1463, read-out: inhibition of proliferation. Format: cell-based. The text has this:
For this experiment the inventors chose SW837 and SW1463 colorectal cell line. The SW837 cell is heterozygous for the G12C mutation whereas the SW1463 is homozygous for the G12C mutation. A stable cell line expressing mKATE2 for Incucyte live cell imaging and analysis was generated.

Assay [3] concerns SW1573. The experiment in a line: Cell proliferation assay, 2D (IncuCyte live cell imaging). The following applies: for pIC50 / inhibition of cell growth at last time point: SW1573; for inhibition of cell growth at last time point: 96 hours. The assay is classed as cell-based. Here is the method: The cells were seeded at density of 10000 cells/well 12 hours prior to the experiment. Once the cells attached to the plate the media was removed and the drugs were added to the cells. […] Cell proliferation was observed using the IncuCyte Live Imaging System for 72 hrs.
Knockdown of ITGB4 (Cat #SR302473C) at the mRNA level in the SW1573 cells was done using siRNAs purchased from OriGene Technologies (Rockville, Md., USA). JetPRIME transfection reagent (Polyplus Transfection, Illkirch, France) was used to transfect the siRNAs according to the manufacturer's protocol. Cells were seeded in 6-well plates (200,000 cells/well) and allowed to adhere overnight. Next day, 10 nM siRNA was transfected with 4 μl jetPRIME reagent in complete growth medium for each well. Next day cells were trypsinized, counted and re-plated on the 96 well plate for cell proliferation and drug assay. […] Cell growth medium was changed the next day and expression was detected 72 h post-transfection by immunoblotting.
The cells grown in 2D cultures were treated with various concentrations of the drug, and the effect on cell proliferation was determined in real time using the live cell proliferation assay (IncuCyte, Essen Bioscience, Inc.) as described in the methods.
Cell proliferation and apoptosis assay: Cell proliferation assays were performed using cell lines stably transfected with NucLight Red Lentivirus (Essen BioScience) to accurately visualize and count the nucleus of a single cell. Cells were seeded on a 96-well plate and allowed to adhere for 24 h. Test compounds were added at indicated concentrations. Caspase-3/7 Green Apoptosis Reagent (Essen BioScience) was also added as a green fluorescent indicator of caspase3/7-mediated apoptotic activity. To monitor cell proliferation and apoptosis over time, the plate was placed in the IncuCyte S3 Live Cell Imaging System (Essen BioScience) and images were acquired every 2 hours. Data analysis was generated by the IncuCyte software using a red fluorescence mask to accurately count each cell nucleus and a green fluorescence mask to measure apoptosis over time. 3D spheroid assay 3D spheroid experiments were performed using cell lines stably transfected with NucLight Red Lentivirus (Essen BioScience) to visualize red fluorescence as an indicator of cell viability. Cells were seeded on a 96-well ultra-low attachment plate and allowed to form spheroids overnight. Drug treatment was added as indicated along with Cytotox Green Reagent (Essen BioScience), used as a green fluorescence indicator of cell death due to loss of cell membrane integrity. To monitor cell proliferation and apoptosis over time, the plate was placed in the IncuCyte S3 Live Cell Imaging System (Essen BioScience) and images were acquired every 2 hours. Data analysis was generated by the IncuCyte software using a red fluorescence mask to accurately measure intensity and area of red fluorescence, indicating spheroid viability and a green fluorescence mask, indicating cell death. Cell cycle analysis.

In assay [4] the test system is SW1573 NSCLC cells. Nature of the assay: Mouse SW1573 xenograft. The following applies: sotorasib 10 mg/kg, adagrasib 10 mg/kg, carfilzomib 2 mg/kg; oral gavage twice a week; day 56. The assay is classed as in vivo, Athymic nude nu/nu mice. Here is the method: Mouse xenograft studies. Athymic nude nu/nu mice were obtained from Charles River, Wilmington, Mass., and were acclimated for a week before beginning the experiment. All animal experiments were carried out in accordance with a protocol approved by the Institutional Animal Care and Use Committee (IACUC #16004). […] All 40 animals were injected with 1×10^6 SW1573 cells suspensions in 100 μl of PBS, subcutaneously into one flank of each mouse. At the same time, animals were randomized into treatment groups. Treatment was started 12 days after the SW1573 NSCLC cells implantation to see palpable tumor growth. Treatments were given to mice via oral gavage twice a week for 8 weeks. Animals were examined daily for signs of tumor growth. Tumors were measured in two dimensions using calipers and body weights were recorded. Photographs of animals were taken at day 1, day 7, day 14, day 21, day 28, day 35, day 42, day 49, and day 56 after treatment. Photographs of tumors were also taken at day 56 after treatment. At the end of the study, the mice were euthanized by CO2 asphyxiation followed by cervical dislocation. The tumor weights were compared between groups using an unpaired Student's t-test. A portion of the tumor was fixed in 10% buffered formaldehyde solution and paraffin-embedded for immuno-staining or was snap-frozen in liquid nitrogen for further molecular analysis such as western blotting.

For assay [5], the system named is H23 sotorasib (20 μM)-resistant cells. The experiment in a line: Cell proliferation, isogenic sotorasib resistant line. The assay is classed as cell-based. The following applies: ITGB4/β-catenin double knockdown together with sotorasib; 96 hours. The text has this:
Next, it was sought to determine cell proliferation changes with the combination treatment.

The subject of assay [6] is SW1573 cells. The experiment in a line: Cell cycle analysis (FACS). The assay is classed as cell-based. The following applies: 20 μM, 72 hours. The text has this:
Using commercially available lentiviral particles (Essen Bioscience Inc.), a SW1573 stable cell line was developed to determine the dynamics of the cell cycle in response to the KRAS inhibitors. In the G1 phase, these cells express the red fluorescent protein and in G2, they express the green fluorescent protein, and cells transitioning from G1 to […], express both the proteins giving rise to yellow florescence.
Cell cycle analysis. […] The stable cell line was generated using the puromycin selection media. Yellow cells are indicative of cell cycle transition from G1 to S while non-fluorescent cells are moving from M to G1.

We go through one compound from patent US20230285498A1, “TREATMENTS FOR CANCERS HAVING KRAS MUTATIONS” (City of Hope, priority 2020, published 2023).

pIC50: −log10 of the molar value.

Take `C=CC(=O)N1CCN(c2nc(=O)n(-c3c(C)ccnc3C(C)C)c3nc(-c4c(O)cccc4F)c(F)cc23)[C@@H](C)C1` [sotorasib]: the inhibition at 16 µM in assay [1] is ~10%. Besides, the inhibition at 10 µM in assay [2] is 40%; in assay [3] (Homo sapiens, SW1573, 72 h, read-out: inhibition of proliferation / cell growth), ~50%. Further, the pIC50 in assay [3] (Homo sapiens, 72 hours, Example 6) was 5.02; in assay [3] (Homo sapiens, Example 1, FIG. 14C-14D) it was 5.10. Also, the “inhibition of cell growth at last time point” value in assay [3] (ITGB4/β-catenin double knockdown plus sotorasib) is “about 70%”; in assay [3] (sotorasib at IC50 concentration only), “about 40%”. Further, the “reduction in tumor area” value in assay [4] is “about 52%”. Also, in assay [5], the “sensitization of isogenic resistant line” value is 70%. This compound also returned a G2 population in assay [6] (from 26%) of 11%. In assay [6] (from about 39%), this compound showed a G1 population of 62%.
